Data as given in PMC9330179 (ACS Omega, 2022).

How the values were obtained:
Format in all cases: biochemical
[1] = target: T1, cathepsin B (Homo sapiens, UniProt P07858)
[2] = target: T2, cathepsin K (Homo sapiens, UniProt P43235); assay: protease activity at a single dose; conditions: read-out: GER-24 (50 μM) % control activity (100%, no inhibitor)
T2 sequence (P43235 115-329): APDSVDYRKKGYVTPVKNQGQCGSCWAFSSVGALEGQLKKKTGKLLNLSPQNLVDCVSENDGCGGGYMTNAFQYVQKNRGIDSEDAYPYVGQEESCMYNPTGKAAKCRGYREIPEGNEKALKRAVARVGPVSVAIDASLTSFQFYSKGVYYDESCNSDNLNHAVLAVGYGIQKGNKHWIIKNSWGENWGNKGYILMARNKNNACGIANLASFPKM

[3] = target: cathepsin V (Homo sapiens, UniProt O60911); assay: protease activity at a single dose; conditions: read-out: GER-24 (50 μM) % control activity (100%, no inhibitor)
[4] = target: T1, cathepsin B; assay: fluorogenic Z-Glu-Lys-AMC assay at pH […], IC50
[5] = target: cathepsin H (Homo sapiens, UniProt P09668); assay: protease activity at a single dose; conditions: read-out: GER-24 (50 μM) % control activity (100%, no inhibitor)
[6] = target: cathepsin S (Homo sapiens, UniProt P25774); assay: protease activity at a single dose; conditions: read-out: GER-24 (50 μM) % control activity (100%, no inhibitor)
Sequence of cathepsin S (P25774 115-331): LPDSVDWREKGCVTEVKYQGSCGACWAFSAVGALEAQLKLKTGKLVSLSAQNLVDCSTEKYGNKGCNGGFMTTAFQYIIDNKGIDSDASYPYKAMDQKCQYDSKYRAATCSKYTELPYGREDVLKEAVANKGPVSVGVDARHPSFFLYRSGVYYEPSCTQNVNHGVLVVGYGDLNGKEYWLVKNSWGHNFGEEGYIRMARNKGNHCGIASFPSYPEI

Sequence of cathepsin H (P09668 116-335, other chains not shown): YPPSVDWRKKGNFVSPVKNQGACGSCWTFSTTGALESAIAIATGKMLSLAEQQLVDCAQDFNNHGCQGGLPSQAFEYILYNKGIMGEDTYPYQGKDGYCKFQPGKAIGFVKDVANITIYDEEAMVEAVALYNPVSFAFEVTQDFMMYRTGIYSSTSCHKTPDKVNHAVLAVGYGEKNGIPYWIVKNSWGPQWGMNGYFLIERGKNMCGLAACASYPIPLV
Sequence of cathepsin V (O60911 114-334): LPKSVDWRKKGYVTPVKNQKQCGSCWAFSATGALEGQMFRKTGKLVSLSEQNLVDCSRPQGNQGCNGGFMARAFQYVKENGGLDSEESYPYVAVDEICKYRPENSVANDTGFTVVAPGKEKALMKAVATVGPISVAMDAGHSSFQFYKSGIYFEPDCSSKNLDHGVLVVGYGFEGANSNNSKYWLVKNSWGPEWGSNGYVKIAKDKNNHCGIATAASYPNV

Ki [1] | remaining activity at 50 µM [2] | remaining activity at 50 µM [3] | IC50 [4] | remaining activity at 50 µM [5] | remaining activity at 50 µM [6] | Structure (SMILES)
1.4 µM |  |  |  |  |  | O=S(=O)(O)Oc1ccc(Oc2cc(Br)c(Oc3ccc(OS(=O)(=O)O)c(Oc4ccc(Br)cc4Br)c3Br)c(Oc3ccc(Br)cc3Br)c2)cc1Br [GER-12, Crossbyanol B]
 | 7% | 17% | 16 µM | 21% | 0% | CCCCC/C=C\C/C=C\C=C/C#CCCCC(=O)O [GER-24, (7Z,9Z,12Z)-octadeca-7,9,12-trien-5-ynoic acid]
